Data on 30 molecules can be found in publication PMC6135100 (Toxicology, 2017).

The subject of series [1] is AR. The conditions noted are these: AR reference compounds; ref Kleinstreuer 2016; cited from earlier work.
Series [2] has as its target T1, rat AR ligand-binding domain (LBD) fused to the DNA-binding domain of GAL4 (Rattus norvegicus, UniProt P15207).
T1 sequence (P15207 651-882 limits assumed): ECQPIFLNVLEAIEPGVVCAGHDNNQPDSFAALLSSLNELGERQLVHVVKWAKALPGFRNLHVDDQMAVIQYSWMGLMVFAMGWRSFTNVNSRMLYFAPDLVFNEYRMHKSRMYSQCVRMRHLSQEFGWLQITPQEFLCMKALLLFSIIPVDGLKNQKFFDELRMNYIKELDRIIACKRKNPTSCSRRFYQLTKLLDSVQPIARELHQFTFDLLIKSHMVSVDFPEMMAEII
Briefly: qHTS AR β-lactamase. It is filed as cell-based. The conditions noted are these: for AR-bla Primary Assay EC50: Inactive = efficacy below 30% of R1881's activity.

For another series, the target named is AR (full receptor) (Homo sapiens, UniProt P10275). Briefly: qHTS AR-luciferase. The format is cell-based. Particulars: for AR-luc Primary Assay EC50 / AR-luc Primary Assay Efficacy: primary qHTS; for AR-luc Primary Assay EC50: Inactive = efficacy below 30% of R1881's activity; for AR-luc Efficacy / EC50: Table 3, mean ± SD, n=3; for AR-luc Efficacy / AR-luc Primary Assay Efficacy: relative to maximal efficacy of R1881; for EC50: read-out: AR-luc EC50.

In a further series the target is T2, AR-LBD (Rattus norvegicus, UniProt P15207).
T2 sequence (P15207 651-882 limits assumed): T1 sequence (P15207 651-882 limits assumed)
The series can be described thus: Fluorescence polarization AR competition binding assay. In general terms: Polarisation of emitted light reports the rotation of a fluorescent probe.

For series [3], the system named is AR. The conditions noted are these: ref Tamaya et al. 1986; cited from earlier work.
A further series concerns the target estrogen receptor (Homo sapiens, UniProt P03372). The series can be described thus: Analogous estrogen receptor screens. The conditions noted are these: data not shown. It is filed as cell-based.
For another series, the system named is rabbit. Particulars: rabbit development study; ref Morinaga et al. 1996b; cited from earlier work.

Like-named read-outs stand apart in the source and are kept apart here.

Chain of AR (full receptor) (P10275 whole entry): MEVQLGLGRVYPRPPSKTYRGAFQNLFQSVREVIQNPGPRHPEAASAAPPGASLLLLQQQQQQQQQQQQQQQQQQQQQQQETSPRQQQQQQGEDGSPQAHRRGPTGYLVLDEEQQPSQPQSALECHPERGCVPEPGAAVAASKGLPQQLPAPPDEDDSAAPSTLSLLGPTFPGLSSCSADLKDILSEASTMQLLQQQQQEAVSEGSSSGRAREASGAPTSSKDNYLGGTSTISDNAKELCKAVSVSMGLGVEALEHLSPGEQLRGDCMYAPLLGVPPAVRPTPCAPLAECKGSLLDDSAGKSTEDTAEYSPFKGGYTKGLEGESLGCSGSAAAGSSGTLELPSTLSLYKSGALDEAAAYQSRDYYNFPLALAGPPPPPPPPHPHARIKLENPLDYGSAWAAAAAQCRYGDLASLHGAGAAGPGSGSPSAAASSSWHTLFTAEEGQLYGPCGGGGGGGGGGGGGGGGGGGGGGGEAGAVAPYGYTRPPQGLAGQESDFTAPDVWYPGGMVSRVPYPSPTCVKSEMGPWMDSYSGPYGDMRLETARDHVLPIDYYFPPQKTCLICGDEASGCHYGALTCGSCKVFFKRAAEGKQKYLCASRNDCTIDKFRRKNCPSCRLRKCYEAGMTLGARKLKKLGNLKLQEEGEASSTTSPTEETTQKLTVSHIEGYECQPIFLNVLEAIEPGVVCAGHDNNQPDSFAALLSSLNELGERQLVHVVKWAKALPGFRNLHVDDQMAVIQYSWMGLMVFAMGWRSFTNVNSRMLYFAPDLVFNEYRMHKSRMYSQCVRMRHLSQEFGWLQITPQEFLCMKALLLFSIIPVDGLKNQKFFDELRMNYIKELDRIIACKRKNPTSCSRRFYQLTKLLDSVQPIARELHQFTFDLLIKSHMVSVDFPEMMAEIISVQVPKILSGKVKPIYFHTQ
Chain of estrogen receptor (P03372 whole entry): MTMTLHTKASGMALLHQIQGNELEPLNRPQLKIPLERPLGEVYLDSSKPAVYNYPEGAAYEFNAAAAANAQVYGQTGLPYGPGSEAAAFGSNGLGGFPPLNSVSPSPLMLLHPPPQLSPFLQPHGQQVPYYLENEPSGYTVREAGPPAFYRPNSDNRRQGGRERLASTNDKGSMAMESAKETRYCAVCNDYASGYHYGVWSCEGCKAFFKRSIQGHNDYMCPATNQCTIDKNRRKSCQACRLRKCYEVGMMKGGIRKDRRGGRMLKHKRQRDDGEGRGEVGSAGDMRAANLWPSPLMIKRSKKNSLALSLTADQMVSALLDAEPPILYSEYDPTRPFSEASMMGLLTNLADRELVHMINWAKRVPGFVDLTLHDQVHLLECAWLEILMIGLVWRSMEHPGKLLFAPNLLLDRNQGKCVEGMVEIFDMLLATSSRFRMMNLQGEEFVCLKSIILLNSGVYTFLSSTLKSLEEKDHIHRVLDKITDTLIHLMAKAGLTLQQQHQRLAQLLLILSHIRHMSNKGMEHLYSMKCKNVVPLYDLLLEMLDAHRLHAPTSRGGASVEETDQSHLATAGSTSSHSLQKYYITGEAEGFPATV

As for `C[C@]12CCC(=O)C=C1CC[C@@H]1[C@@H]2CC[C@]2(C)C(=O)CC[C@@H]12` [4-Androstenedione], in the series with AR [1], the “Known AR Activity” value is on record as “Agonist”. Regarding `C[C@]12CCC(=O)C[C@@H]1CC[C@@H]1[C@@H]2CC[C@]2(C)[C@@H](O)CC[C@@H]12` [5α-Dihydrotestosterone], in the series on AR [1], the “Known AR Activity” value is “Agonist”. As to `CCNc1nc(Cl)nc(NC(C)C)n1` [Atrazine], the “Known AR Activity” value in the series with AR [1] is on record as “Inactive”.

Take `COC(=O)Nc1nc2ccccc2[nH]1` [Carbendazim]: the “AR-bla Primary Assay EC50” value in series [2] (primary qHTS) was “Inactive^b”. Besides, the “AR-luc Primary Assay EC50” value at AR (full receptor) is “Inactive^b”. In addition, the “Known AR Activity” value with AR [1] is “Inactive”.

As for `CC(=O)O[C@]1(C(C)=O)CC[C@H]2[C@@H]3C=C(Cl)C4=CC(=O)[C@@H]5C[C@@H]5[C@]4(C)[C@H]3CC[C@@]21C` [Cyproterone acetate], the “Known AR Activity” value in the series with AR [1] is “Weak Agonist”. Regarding `CC1(C)[C@H](C(=O)O[C@H](C#N)c2cccc(Oc3ccccc3)c2)[C@@H]1C=C(Br)Br` [Deltamethrin], the “AR-bla Primary Assay EC50” value in series [2] (primary qHTS) is on record as “Inactive^b”. The “AR-luc Primary Assay EC50” value at AR (full receptor) is on record as “Inactive^b”. The “Known AR Activity” value in the series on AR [1] is on record as “Inactive”. With `C[C@]12CC[C@H]3C(=CCc4cc(O)ccc43)[C@@H]1CCC2=O` [Equilin], in series [2], a half-maximal effect (EC50) was put at 19.5 µM. The “AR-bla Efficacy” value in series [2] (Table 3, mean ± SD, n=3, relative to maximal efficacy of R1881) is 31.53 ± 3.88%. For the same molecule, on AR (full receptor), the “AR-luc Efficacy” value came to 89.27 ± 18.86% and the 50% effective concentration (EC50) (as a rule, the concentration needed to bring the measured effect to its halfway point) came out at 6.31 ± 2.03 µM. On AR-LBD, the “FP Binding Efficacy” value is listed as −89.77 ± 13.22% and the 50% inhibitory concentration (IC50) (as a rule, the concentration at which inhibition is half-maximal) amounted to 21 ± 3.41 µM. On to `OC(c1ccc(Cl)cc1)(c1cncnc1)c1ccccc1Cl` (stereo not shown) [Fenarimol], for which the “Known AR Activity” value in the series on AR [1] is “Inactive”. Take `C[C@]1(O)CC[C@H]2[C@@H]3CCC4=CC(=O)CC[C@]4(C)[C@@]3(F)[C@@H](O)C[C@@]21C` [Fluoxymestrone]: the “Known AR Activity” value with AR [1] is listed as “Agonist”. As to `CC(C)C(=O)Nc1ccc([N+](=O)[O-])c(C(F)(F)F)c1` [Flutamide], the “Known AR Activity” value in the series on AR [1] is “Inactive”. As for `CC1(C)[C@@H](O[C@H]2O[C@H](C(=O)O)[C@@H](O)[C@H](O)[C@H]2O[C@@H]2O[C@H](C(=O)O)[C@@H](O)[C@H](O)[C@H]2O)CC[C@]2(C)[C@H]3C(=O)C=C4[C@@H]5C[C@@](C)(C(=O)O)CC[C@]5(C)CC[C@@]4(C)[C@]3(C)CC[C@@H]12` [Glycyrrhizin], in the series with AR [3], the “binding to AR, previously identified” value is on record as “weak binder of AR”.

For the molecule `CC(C)NC(=O)N1CC(=O)N(c2cc(Cl)cc(Cl)c2)C1=O` [Iprodione], in the series with AR [1], the “Known AR Activity” value is “Inactive”. Turning to `C#C[C@]1(O)CC[C@H]2[C@@H]3CCC4=CC(=O)CC[C@@H]4[C@H]3CC[C@@]21CC` [Levonorgestrel], the “Known AR Activity” value with AR [1] is reported as “Agonist”. `CC(=O)O[C@]1(C(C)=O)CC[C@H]2[C@@H]3C[C@H](C)C4=CC(=O)CC[C@]4(C)[C@H]3CC[C@@]21C` [Medroxyprogesterone acetate]: in the series with AR [1], the “Known AR Activity” value is recorded as “Agonist”. Turning to `C=C1C[C@H]2[C@@H]3C=C(C)C4=CC(=O)CC[C@]4(C)[C@H]3CC[C@]2(C)[C@@]1(OC(C)=O)C(C)=O` [Melengestrol acetate], on AR (full receptor), the “AR-luc Efficacy” value is given as 288.12 ± 44.83% and the EC50 turned out to be 0.017 ± 0.012 µM. The half-inhibitory concentration (IC50) on AR-LBD amounted to 1.17 ± 0.2 µM. Moreover, at AR-LBD (mean ± SD, n=3, printed as negative values), the “FP Binding Efficacy” value was −124.24 ± 3.58%. Consider `C[C@]12CCC(=O)C=C1CC[C@@H]1[C@@H]2CC[C@@]2(C)[C@H]1CC[C@]2(C)O` [Methyltestosterone], for which the “Known AR Activity” value in the series on AR [1] was “Agonist”. Regarding `C[C@]1(O)CC[C@H]2[C@@H]3CCC4=CC(=O)CCC4=C3C=C[C@@]21C` [Methyltrienolone (R1881), Methyltrienolone], the “AR-bla Primary Assay Efficacy” value in series [2] is 0.00131 [131] %. For the same molecule, in the series with AR [1], the “Known AR Activity” value is “Agonist”. For the molecule `C[C@]12CC[C@H]3[C@@H](CCC4=CC(=O)CC[C@@H]43)[C@@H]1CC[C@@H]2O` [Nandrolone], the “Known AR Activity” value with AR [1] is “Agonist”. For `CC1(C)NC(=O)N(c2ccc([N+](=O)[O-])c(C(F)(F)F)c2)C1=O` [Nilutamide], the “Known AR Activity” value with AR [1] is “Inactive”. In the case of `CN1C(=O)CN=C(c2ccccc2)c2cc([N+](=O)[O-])ccc21` [Nimetazepam, nimetazepam], the “AR-luc Primary Assay Efficacy” value on AR (full receptor) came out at 470%. As for `C#C[C@]1(OC(C)=O)CC[C@H]2[C@@H]3CCC4=CC(=O)CC[C@@H]4[C@H]3CC[C@@]21C` [Norethindrone acetate], in the series with AR [1], the “Known AR Activity” value was “Agonist”. On to `C#C[C@]1(O)CC[C@H]2[C@@H]3CCC4=CC(=O)CC[C@@H]4[C@H]3CC[C@@]21C` [Norethindrone], for which the “Known AR Activity” value in the series with AR [1] is reported as “Agonist”.

As for `C#C[C@]1(O)CC[C@H]2[C@@H]3CCC4=C(CCC(=O)C4)[C@H]3CC[C@@]21C` [Norethynodrel], the “Known AR Activity” value with AR [1] is listed as “Agonist”. Regarding `CCCN(CCOc1c(Cl)cc(Cl)cc1Cl)C(=O)n1ccnc1` [Prochloraz], the “Known AR Activity” value with AR [1] is given as “Inactive”. `Cc1oc(=O)oc1CN1CCN(c2cc3c(cc2F)c(=O)c(C(=O)O)c2n3C(C)S2)CC1` (stereo not shown) [Prulifloxacin]: the “activity in estrogen receptor screens” value at estrogen receptor is on record as “active”. In addition, in the series on rabbit, the NOAEL for pregnancy was 30 mg/kg and the “general toxicity NOAEL” value was 10 mg/kg.

For the molecule `Oc1ccc(/C=C/c2cc(O)cc(O)c2)cc1` [Resveratrol], the “AR-bla Primary Assay EC50” value in series [2] (primary qHTS) is reported as “Inactive^b”. Further, at AR (full receptor), the “AR-luc Primary Assay EC50” value was “Inactive^b”. Moreover, the “Known AR Activity” value with AR [1] is “Inactive”. As to `CC/C(=C(\c1ccccc1)c1ccc(OCCN(C)C)cc1)c1ccccc1` [Tamoxifen], the “Known AR Activity” value with AR [1] is given as “Inactive”. With `C[C@]12CC[C@H]3[C@@H](CCC4=CC(=O)CC[C@@]43C)[C@@H]1CC[C@@H]2O` [Testosterone], in the series on AR [1], the “Known AR Activity” value is recorded as “Agonist”. As to `C[C@]12C=CC3=C4CCC(=O)C=C4CCC3C1CC[C@@H]2O` (stereo partly shown) [Trenbolone], the “AR-bla Primary Assay Efficacy” value in series [2] (primary qHTS, relative to maximal efficacy of R1881) came to 105%. Besides, the “AR-luc Primary Assay Efficacy” value on AR (full receptor) is listed as 122%. Also, the “Known AR Activity” value with AR [1] is “Agonist”. Regarding `Clc1ccc(C(c2ccc(Cl)cc2)C(Cl)(Cl)Cl)cc1` [p,p’-DDT], the “Known AR Activity” value with AR [1] is given as “Inactive”.
